Here are results for eight compounds from ChEMBL document CHEMBL5053554, “Identification of novel influenza polymerase PB2 inhibitors using virtual screening approach and molecular dynamics simulation analysis of active compounds” (Bioorg Med Chem, 2021).

Some results are limits rather than exact numbers.

In series [1] the target is Polymerase basic protein 2 (Influenza A virus (strain A/Puerto Rico/8/1934 H1N1), UniProt P03428). As to the kind of experiment: Binding affinity to CM5 immobilized N-terminal His/Sumo tagged Influenza A virus (A/WSN/1933(H1N1)) PB2 CBD (318 to 486 residues) expressed in Escherichia coli by surface plasmon resonance assay. A general note: SPR reads the build-up and loss of mass on a sensor chip optically.

The subject of series [2] is Influenza A virus (A/Puerto Rico/8/1934(H1N1)). Briefly: Antiviral activity against Influenza A virus (A/Puerto Rico 8/1934 (H1N1)) infected in MDCK cells assessed as inhibition of virus-induced cytopathic effect measured after 72 hrs by CellTiter-Glo viability assay. It counts as functional, organism-based. (Protection from cytopathic effect is a common read-out in antiviral testing.)

A short description of series [3]: Antiviral activity against Influenza A virus (A/Hong Kong/1-8/1968(H3N2)) infected in MDCK cells assessed as inhibition of virus-induced cytopathic effect measured after 72 hrs by CellTiter-Glo viability assay. It counts as functional, cell-based.
Series [4] in a line: Cytotoxicity against MDCK cells assessed as reduction in cell viability measured after 72 hrs by CCK8 analysis. It counts as cell-based, Canis lupus familiaris. The following applies: dog.

Sequence of Polymerase basic protein 2 (P03428 whole entry, the tested form may be a part): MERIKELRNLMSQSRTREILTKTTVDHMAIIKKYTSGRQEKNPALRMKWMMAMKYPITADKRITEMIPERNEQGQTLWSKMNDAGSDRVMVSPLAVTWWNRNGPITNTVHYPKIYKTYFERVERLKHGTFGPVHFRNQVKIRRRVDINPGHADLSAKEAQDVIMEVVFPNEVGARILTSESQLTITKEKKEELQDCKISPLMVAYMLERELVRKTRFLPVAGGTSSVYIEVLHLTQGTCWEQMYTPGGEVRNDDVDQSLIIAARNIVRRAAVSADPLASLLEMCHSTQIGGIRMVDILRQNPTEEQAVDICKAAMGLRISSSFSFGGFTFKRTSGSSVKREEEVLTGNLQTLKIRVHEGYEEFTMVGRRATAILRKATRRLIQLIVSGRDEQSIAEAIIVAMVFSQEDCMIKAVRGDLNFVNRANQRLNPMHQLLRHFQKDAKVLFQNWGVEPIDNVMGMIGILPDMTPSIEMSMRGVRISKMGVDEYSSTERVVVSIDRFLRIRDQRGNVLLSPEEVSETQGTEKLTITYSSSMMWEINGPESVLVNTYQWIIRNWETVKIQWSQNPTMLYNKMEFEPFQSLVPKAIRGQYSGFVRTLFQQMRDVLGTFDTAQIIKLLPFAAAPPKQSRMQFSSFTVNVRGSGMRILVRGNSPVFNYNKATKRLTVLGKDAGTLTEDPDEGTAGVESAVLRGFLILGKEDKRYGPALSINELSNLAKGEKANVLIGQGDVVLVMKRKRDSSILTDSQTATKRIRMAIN

By Kd is commonly meant the constant that tells how readily two partners part at equilibrium. For orientation: EC50 means the midpoint of the concentration-response curve. As a reminder, the CC50 is the concentration giving 50% cytotoxicity. `O=C(O)CSc1nc(-c2ccccc2)nc2c1oc1ccccc12` gave a Kd in series [1] of 0.25 µM. The EC50 in series [2] stood at 22.4 µM; in series [3], 27 µM. In series [4], the half-maximal cytotoxic concentration (CC50) at 72 h was above 100 µM.
On the same counts, the results for `O=c1[nH]c2ccc(NCc3ccc(Cl)c(Cl)c3)cc2[nH]1` are 6.4 µM, 21.7 µM, 7.44 µM and above 100 µM.
The like results for `O=C1c2ccccc2C(=O)c2cc(OC[C@H](O)Cn3cnc4ccccc43)ccc21` were, in that order, 2.2 µM, 33.2 µM, 25.2 µM and above 100 µM.
On the same counts, the results for `O=C(O)CSc1cc(O)c2c(c1O)C(=O)c1ccccc1C2=O` are 0.58 µM, 5.81 µM, 7.55 µM and 49.7 µM.
For the compound `Cc1c(O[C@H](C(=O)O)c2ccccc2)ccc2c1oc(=O)c1ccccc12`, binding in series [1] was put at a Kd of 0.11 µM. Also, the EC50 in series [2] stood at 26.5 µM; in series [3], 15.1 µM. Besides, the CC50 at 72 h in series [4] was above 100 µM.
As for `O=C(c1cc(=O)[nH]c2ccccc12)N1CCc2[nH]c3ccccc3c2C1`, in series [1], binding was characterised by a dissociation constant (Kd) of 1.6 µM. The EC50 in series [2] amounted to 42.8 µM; in series [3], 41.5 µM. Moreover, the CC50 at 72 h in series [4] is above 100 µM.
With `CCC(CC)O[C@@H]1C=C(C(=O)O)C[C@H](N)[C@H]1NC(C)=O` [OSELTAMIVIR CARBOXYLATE], the EC50 in series [2] worked out at 3.07 µM; in series [3], 0.03 µM. For the same compound, the cytotoxic concentration (CC50) at 72 h in series [4] is above 100 µM.
On to `O=C(O)[C@H]1C2CCC(CC2)[C@@H]1Nc1nc(-c2c[nH]c3ncc(F)cc23)ncc1F` [PIMODIVIR], for which the Kd in series [1] was 0.054 µM. Also, the figures for the EC50 in series [2] and in series [3] were below 0.005 µM and 1.84 µM, respectively. Further, in series [4], the CC50 at 72 h is above 100 µM.
